Assay results: ChEMBL document CHEMBL1123241, “Alkyl-substituted thiolo-, thiono-, and dithio-gamma-butyrolactones: new classes of convulsant and anticonvulsant agents” (1986)

What was measured:
Assay type in all cases: functional
Mus musculus [1] = experiment: Compound was evaluated for anticonvulsant activity against PTZ-induced clonic seizures at 62.5 mg/kg dose; 4/4
Mus musculus [2] = experiment: Compound was evaluated for anticonvulsant activity against PTZ-induced clonic seizures at the 250 mg/kg dose; 4/4
Mus musculus [3] = experiment: Compound was evaluated for anticonvulsant activity against PTZ-induced tonic seizures at the 62.5 mg/kg dose; 4/4
Mus musculus [4] = experiment: Compound was evaluated for anticonvulsant activity against PTZ-induced tonic seizures at the 250 mg/kg dose; 4/4
Mus musculus [5] = experiment: Compound was evaluated for anticonvulsant activity against PTZ-induced clonic seizures at the 125 mg/kg dose; 4/4
Mus musculus [6] = experiment: Compound was evaluated for anticonvulsant activity against PTZ-induced tonic seizures at the 125 mg/kg dose; 4/4
Mus musculus [7] = experiment: Compound was evaluated for anticonvulsant activity against PTZ-induced clonic seizures at the 500 mg/kg dose; 3/5
Mus musculus [8] = experiment: Compound was evaluated for anticonvulsant activity against PTZ-induced tonic seizures at the 500 mg/kg dose; 1/5
Mus musculus [9] = experiment: Compound was evaluated for anticonvulsant activity against PTZ-induced clonic seizures at the 100 mg/kg dose; 5/5
Mus musculus [10] = experiment: Compound was evaluated for anticonvulsant activity against PTZ-induced tonic seizures at the 100 mg/kg dose; 5/5
Mus musculus [11] = experiment: Compound was evaluated for anticonvulsant activity against PTZ-induced clonic seizures at the 250 mg/kg dose; 3/5
Mus musculus [12] = experiment: Compound was evaluated for anticonvulsant activity against PTZ-induced tonic seizures at the 250 mg/kg dose; 3/5

## CCC1(C)CCOC1=O (configuration not stated)
Mus musculus [1]
  Mean time to seizure: 150 s
Mus musculus [2]
  Mean time to seizure: 163 s
Mus musculus [3]
  Mean time to seizure: 1015 s
Mus musculus [4]
  Mean time to seizure: 844 s
Mus musculus [5]
  Mean time to seizure: 365 s
Mus musculus [6]
  Mean time to seizure: 1078 s

## CCC1(C)CCSC1=S (configuration not stated)
Mus musculus [7]
  Mean time to seizure: 218 s
Mus musculus [8]
  Mean time to seizure: 1200 s
Mus musculus [9]
  Mean time to seizure: 87 s
Mus musculus [10]
  Mean time to seizure: 728 s

## CCC1(C)CCOC1=S (configuration not stated)
Mus musculus [11]
  Mean time to seizure: 155 s
Mus musculus [12]
  Mean time to seizure: 341 s
